Measured values from patent publication US8933016B2, “Metallodrugs having improved pharmacological properties and methods of manufacture and use thereof” (priority 2012, dated 2015).
≈ marks a conversion by molar mass, not a printed value. Like-named read-outs stand apart in the source and are kept apart here. Ends that are not written are not given here. Peptide text beside a SMILES is read from it. * marks the point of attachment. X2 = COCCOCCOCCOCCOCCOCCOCCOCCOCCOCCOCCOCCOCCOCCOCCOCCOCCOCCOCCOCCOCCOCCOCCOCCNC(=O)CCN1C(=O)CC(*)C1=O

Legend:
[1] = tested on: E. coli (ATCC 25922); assay: Protein oxidation, quantitation of protein carbonyls in E. coli; type: cell-based; details: 100 mM
[2] = tested on: S. pneumoniae, 49619 (Sp)
[3] = tested on: E. coli O157:H7, BAA-1883 (Ec F)
[4] = Cytotoxicity toward human Huh7 liver cells
[5] = tested on: H. influenzae, 49247 (Hi)
[6] = tested on: E. coli, 25922 (Ec)
[7] = tested on: MRSA, 43300; details: Mueller Hinton Broth
[8] = tested on: E. faecium, 700221 (Ef); details: Mueller Hinton Broth
[9] = tested on: K. pneumonia, 700603 (Kp); type: cell-based; details: Mueller Hinton Broth
[10] = tested on: P. aeuginosa, 27583 (Pa)
[11] = tested on: S. aureus, 29213 (Sa)
[12] = tested on: A. baumanii, BAA-747 (Ab)
[13] = in vitro; details: human

OO [H2O2, Hydrogen Peroxide]
Protein Carbonyls (nmol/mg protein) ([1]; 2 hours (PEP 188 table)): 0.87 nmol/mg protein
Protein Carbonyls (nmol/mg protein) ([1]; 2 hours, average of 2 separate experiments (PEP 189 table)): 0.44 nmol/mg protein

CC[C@H](C)[C@H](NC(=O)[C@H](CCCCN)NC(=O)[C@H](Cc1c[nH]c2ccccc12)NC(=O)[C@H](CCCNC(=N)N)NC(=O)[C@H](CCCNC(=N)N)NC(=O)[C@H](Cc1c[nH]cn1)NC(=O)CNC(=O)CN)C(=O)N[C@H](C(=O)N[C@H](C(=O)N[C@H](C(=O)N[C@@H](CCCNC(=N)N)C(=O)N[C@@H](Cc1c[nH]c2ccccc12)C(=O)N[C@@H](CCCNC(=N)N)C(=O)N[C@@H](CCCNC(=N)N)C(=O)NCC(=O)NCC(=O)N[C@@H](CSC1CC(=O)N(CCC(=O)NCCOCCOCCOCCOCCOCCOCCOCCOCCOCCOCCOCCOCCOCCOCCOCCOCCOCCOCCOCCOCCOCCOCCOCCOC)C1=O)C(=O)O)[C@@H](C)CC)C(C)C)C(C)C (some centres unmarked) [PEP 314 PEG 24] (H-GGHRRWKIVVIRWRRGGC(X2)-OH; C-terminus assumed)
MIC Sp ([2]; 49619 (Sp)): 4.7 µM (≈ 16.1 µg/mL)
MIC Ec F ([3]; O157:H7): 9.3 µM (≈ 31.9 µg/mL)
IC50 [4]: > 200 µM

CC[C@H](C)[C@H](NC(=O)[C@H](Cc1c[nH]cn1)NC(=O)CNC(=O)CN)C(=O)N[C@@H](CC(C)C)C(=O)N1CCC[C@H]1C(=O)N[C@@H](Cc1c[nH]c2ccccc12)C(=O)N[C@@H](CCCCN)C(=O)N[C@@H](Cc1c[nH]c2ccccc12)C(=O)N1CCC[C@H]1C(=O)N[C@@H](Cc1c[nH]c2ccccc12)C(=O)N[C@@H](Cc1c[nH]c2ccccc12)C(=O)N1CCC[C@H]1C(=O)N[C@@H](Cc1c[nH]c2ccccc12)C(=O)N[C@@H](CCCNC(=N)N)C(=O)N[C@@H](CCCNC(=N)N)C(=O)NCC(=O)NCC(=O)N[C@@H](CS)C(=O)O [PEP 316, GGHILPWKWPWWPWRRGGC]
MIC Hi [5]: 13.5 µM (≈ 32.1 µg/mL)

DOTA-Ampicillin [DOTAMP]
MIC Ec ([6]; Mueller Hinton Broth): 42.5 µM
MIC MRSA [7]: 42.5 µM
MIC Ec F ([3]; Mueller Hinton Broth): 42.5 µM

GGHGEYVLRNWRIVKVATTKAC [PEP 193]
MIC MRSA [7]: 13 µM

GGHGIRRIIRKIIHIIKKGGC [PEP 311]
MIC Hi [5]: 31.7 µM
MIC Ef [8]: 4 µM
MIC Sp ([2]; Mueller Hinton Broth): 15.8 µM
MIC Ec ([6]; Mueller Hinton Broth): 7.9 µM
MIC Kp [9]: 7.9 µM
MIC Pa ([10]; Mueller Hinton Broth): 15.8 µM
MIC Sa ([11]; Mueller Hinton Broth): 7.9 µM
MIC Ab ([12]; Mueller Hinton Broth): 2 µM
MIC Ec F ([3]; Mueller Hinton Broth): 4 µM

GGHGRRWKIVVIRWRRGGC [PEP 321, GGHGRRWKIVVIRWRRGGC]
MIC Hi [5]: 14.2 µM
MIC Ef [8]: 7.1 µM
MIC Sp ([2]; Mueller Hinton Broth): 1.8 µM
MIC Kp [9]: 14.2 µM
MIC MRSA [7]: 14.2 µM
MIC Ab ([12]; Mueller Hinton Broth): 28.4 µM
MIC Ec F ([3]; Mueller Hinton Broth): 14.2 µM

GGHGWRWYCR [PEP 204, GGHGWRWYCR]
MIC Ef [8]: 25.1 µM
MIC Ec ([6]; Mueller Hinton Broth): 3.1 µM
MIC Kp [9]: 4.7 µM
MIC Pa ([10]; Mueller Hinton Broth): 25 µM
MIC MRSA [7]: 6.3 µM
MIC Ab ([12]; Mueller Hinton Broth): 25.1 µM
MIC Ec F ([3]; Mueller Hinton Broth): 50 µM

GGHGWRWYCRGGK [PEP 323, GGHGWRWYCRGGK]
MIC Hi [5]: 1.5 µM
MIC Ec ([6]; 25922 (Ec)): 20.9 µM
MIC Kp [9]: 20.9 µM
MIC Pa [10]: 20.9 µM
MIC Ab ([12]; BAA-747): 20.9 µM

GGHIRRIIRKIIHIIKKGGC [PEP 318]
MIC Sp ([2]; 49619 (Sp)): 3.5 µM
MIC Ec ([6]; 25922 (Ec)): 7 µM
MIC Kp [9]: 28.2 µM
MIC Pa [10]: 28.2 µM
MIC Sa ([11]; 29213 (Sa)): 14.1 µM
IC50 [13]: 41 µM
MIC Ab ([12]; BAA-747): 7 µM

GGHRRWKIVVIRWRRGGC [PEP 314, GGHRRWKIVVIRWRRGGC]
MIC Hi [5]: 3.7 µM
MIC Sp ([2]; 49619 (Sp)): 0.9 µM
MIC Ec ([6]; 25922 (Ec)): 14.6 µM
MIC Kp [9]: 14.6 µM
MIC Pa [10]: 14.6 µM
MIC Sa ([11]; 29213 (Sa)): 29.2 µM
IC50 [13]: 17 µM
MIC Ab ([12]; BAA-747): 7.3 µM

GGHTRQARRNRR [PEP 205, GGHTRQARRNRR]
MIC Pa [10]: 43.7 µM

GGHWRWYCRGGK [PEP 322, GGHWRWYCRGGK]
MIC Hi [5]: 2.7 µM
MIC Kp [9]: 7.6 µM
